Reference: paper PMC6364417, “Kinase inhibitor library screening identifies synergistic drug combinations effective in sensitive and resistant melanoma cells” (Journal of Experimental & Clinical Cancer Research : CR, 2019)

What was measured:
Assay in all cases: Kinase inhibitor library screening, PrestoBlue cell viability, 1 or 10 μM, 72 h
[1] = tested on: 501Mel-XP cells (Vemurafenib-resistant); conditions: 501Mel XP, 72 h; for cell viability, 501Mel XP, 1μΜ / cell viability, 501Mel XP, 10μΜ: in %
A375 cells (parental) = conditions: A375 Parental, 72 h
[2] = tested on: 501Mel-GP cells (Dabrafenib-resistant); conditions: 501Mel GP, 72 h
[3] = tested on: A375-GP cells (Dabrafenib-resistant); conditions: A375 GP, 72 h
[4] = tested on: A375-XP cells (Vemurafenib-resistant); conditions: A375 XP, 72 h
[5] = tested on: IGR37-XP cells (Vemurafenib-resistant); conditions: IGR37 XP, 72 h; for cell viability, IGR37 XP, 1μΜ: in %
IGR37 cells (parental) = conditions: IGR37 Parental, 72 h; for cell viability, IGR37 Parental, 1μΜ / cell viability, IGR37 Parental, 10μΜ: in %
501Mel cells (parental) = conditions: 501Mel Parental, 72 h; for cell viability, 501Mel Parental, 1μΜ / cell viability, 501Mel Parental, 10μΜ: in %
How it was run: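 Values are % viability versus untreated wells, measured by PrestoBlue after a 72 h drug exposure. Screens covered the parental line plus sublines rendered resistant to Vemurafenib or Dabrafenib, each analysed in at least duplicate.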

[6] = tested on: IGR37-GP cells (Dabrafenib-resistant); conditions: IGR37 GP, 72 h; for cell viability, IGR37 GP, 1μΜ: in %

| Compound | cell viability (kinase inhibitor library screening) ([1]; 1μΜ) [%] | cell viability (kinase inhibitor library screening) ([1]; 10μΜ) [%] | cell viability (kinase inhibitor library screening) (A375 cells (parental); 10μΜ) [%] | cell viability (kinase inhibitor library screening) (A375 cells (parental); 1μΜ) [%] | cell viability (kinase inhibitor library screening) ([2]; 1μΜ) [%] | cell viability (kinase inhibitor library screening) ([2]; 10μΜ) [%] | cell viability (kinase inhibitor library screening) ([3]; 10μΜ) [%] | cell viability (kinase inhibitor library screening) ([4]; 10μΜ) [%] | cell viability (kinase inhibitor library screening) ([5]; 1μΜ) [%] | cell viability (kinase inhibitor library screening) ([5]; 10μΜ) [%] | cell viability (kinase inhibitor library screening) (IGR37 cells (parental); 1μΜ) [%] | cell viability (kinase inhibitor library screening) (IGR37 cells (parental); 10μΜ) [%] | cell viability (kinase inhibitor library screening) (501Mel cells (parental); 1μΜ) [%] | cell viability (kinase inhibitor library screening) (501Mel cells (parental); 10μΜ) [%] | cell viability (kinase inhibitor library screening) ([6]; 1μΜ) [%] | cell viability (kinase inhibitor library screening) ([6]; 10μΜ) [%] | cell viability, 501Mel XP, 1μΜ ([1]; 1μΜ) | cell viability, 501Mel XP, 10μΜ ([1]; 10μΜ) | cell viability, A375 Parental, 10μΜ (A375 cells (parental); 10μΜ, in %) | cell viability, 501Mel GP, 10μΜ ([2]; 10μΜ, in %) | also measured |
| --- | --- | --- | --- | --- | --- | --- | --- | --- | --- | --- | --- | --- | --- | --- | --- | --- | --- | --- | --- | --- | --- |
| Cc1cc(CN2CCN(c3c(Br)cnc4nc(-c5ccc(N6CCN(C)CC6)cc5)[nH]c34)CC2)no1 [CCT137690] | 76.9 | -0.565 | 1.0 | 56.7 | 95.4 | -0.454 | 0.6 | 0.9 | 93.1 | 0.741 | 91.0 | 0.571 | 87.2 | 0.283 | 88.6 | 1.7 | – | – | – | – | cell viability (kinase inhibitor library screening) ([3]; 1μΜ): 56.6% |
| CN1CCN(c2cccc(Nc3nc4c(-c5ccc(S(C)(=O)=O)cc5)cccn4n3)c2)CC1 [CEP33779] | – | – | – | – | – | – | – | – | – | – | – | – | – | – | – | – | 88.8 | 71.8 | 76.5 | 81.6 | cell viability, A375 GP, 10μΜ ([3]; 10μΜ, in %): 77.6; cell viability, A375 XP, 1μΜ ([4]; 1μΜ, in %): 100.1; cell viability, A375 XP, 10μΜ ([4]; 10μΜ, in %): 88.6; cell viability, IGR37 XP, 10μΜ ([5]; 10μΜ): 28.8%; cell viability, IGR37 XP, 1μΜ ([5]; 1μΜ): 90.4; cell viability, IGR37 Parental, 1μΜ (IGR37 cells (parental); 1μΜ): 103.9; cell viability, IGR37 Parental, 10μΜ (IGR37 cells (parental); 10μΜ): 83.9; cell viability, 501Mel Parental, 1μΜ (501Mel cells (parental); 1μΜ): 94.5; cell viability, 501Mel Parental, 10μΜ (501Mel cells (parental); 10μΜ): 91.1; cell viability, IGR37 GP, 10μΜ ([6]; 10μΜ): 67.9%; cell viability, IGR37 GP, 1μΜ ([6]; 1μΜ): 93.0 |
| CCc1cc2c(cc1N1CCC(N3CCOCC3)CC1)C(C)(C)c1[nH]c3cc(C#N)ccc3c1C2=O [CH5424802] | 99.2 | 32.3 | 64.9 | 106.9 | 104.8 | 72.7 | 71.2 | 75.8 | 106.4 | 5.0 | 103.9 | 96.2 | 109.6 | 80.1 | 105.2 | 10.4 | – | – | – | – | cell viability (kinase inhibitor library screening) ([4]; 1μΜ): 105.6% |
| C=CC(=O)Nc1cc2c(Nc3ccc(F)c(Cl)c3)ncnc2cc1OCCCN1CCOCC1 [CI-1033 (Canertinib)] | – | – | – | – | – | – | – | – | – | – | – | – | – | – | – | – | 93.9 | 0.248 | 24.5 | 1.4 | cell viability, A375 Parental, 1μΜ (A375 cells (parental); 1μΜ, in %): 105.5; cell viability, 501Mel GP, 1μΜ ([2]; 1μΜ, in %): 102.8; cell viability, A375 GP, 1μΜ ([3]; 1μΜ, in %): 99.4; cell viability, A375 GP, 10μΜ ([3]; 10μΜ, in %): 23.3; cell viability, A375 XP, 10μΜ ([4]; 10μΜ, in %): 15.2; cell viability, IGR37 XP, 10μΜ ([5]; 10μΜ): 23.7%; cell viability, IGR37 XP, 1μΜ ([5]; 1μΜ): 99.0; cell viability, IGR37 Parental, 1μΜ (IGR37 cells (parental); 1μΜ): 98.8; cell viability, IGR37 Parental, 10μΜ (IGR37 cells (parental); 10μΜ): 53.7; cell viability, 501Mel Parental, 1μΜ (501Mel cells (parental); 1μΜ): 103.3; cell viability, 501Mel Parental, 10μΜ (501Mel cells (parental); 10μΜ): 35.1; cell viability, IGR37 GP, 10μΜ ([6]; 10μΜ): 30.7%; cell viability, IGR37 GP, 1μΜ ([6]; 1μΜ): 92.4 |
